Data from BigSolDB 2.1.

C=C1C[C@]23C[C@@]1(O)CC[C@H]2[C@@]12C=C[C@H](O)[C@@](C)(C(=O)O1)[C@H]2[C@@H]3C(=O)O
solubility (mole fraction)
Conditions	278.15 K	283.15 K	288.15 K	293.15 K	298.15 K	303.15 K	308.15 K	313.15 K	318.15 K	323.15 K
in DMSO	0.121	0.138	0.159	0.184	0.207	0.233	0.263	0.291	0.323	0.362
in THF	0.149	0.173	0.199	0.227	0.252	0.279	0.31	0.341	0.371	0.401
in acetone	0.103	0.12	0.137	0.158	0.181	0.205	0.23	0.258	0.289	0.32
in acetonitrile	0.00864	0.0119	0.0155	0.0197	0.0243	0.0294	0.0352	0.0413	0.0481	0.0565
in chloroform	0.0222	0.0302	0.0386	0.0479	0.0591	0.0715	0.085	0.0994	0.114	0.13
in ethanol	0.181	0.205	0.231	0.257	0.284	0.312	0.344	0.374	0.404	0.438
in ethyl acetate	0.0679	0.0807	0.0956	0.112	0.132	0.152	0.175	0.203	0.235	0.271
in isopropanol	0.000502	0.000563	0.000625	0.000688	0.000752	0.000821	0.000888	0.00096	0.00103	0.00111
in n-butanol	0.0021	0.00318	0.00427	0.00554	0.00704	0.00876	0.0107	0.0129	0.0151	0.0173
in n-heptane	8.4e-05	0.000116	0.000152	0.000192	0.000236	0.000289	0.000349	0.000407	0.000471	0.000537
in n-hexane	0.00017	0.000202	0.000239	0.000282	0.00033	0.000386	0.000444	0.000511	0.000583	0.000666
